IC50 and melting point data for 21 molecules are collected here from patent publication US6974831B2, “sPLA2 inhibitors” (Eli Lilly and Company, priority 2000, dated 2005).

The target of the first data set is T1, recombinant human secreted phospholipase A2 (Homo sapiens, UniProt P14555).
T1 sequence (P14555 21-144): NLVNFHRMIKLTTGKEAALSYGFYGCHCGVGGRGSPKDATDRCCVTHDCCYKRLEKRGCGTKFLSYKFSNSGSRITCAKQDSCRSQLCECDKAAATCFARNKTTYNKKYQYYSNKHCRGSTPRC
Briefly: chromogenic assay of sPLA2 inhibition (diheptanoyl thio-PC / DTNB, 96 well microtiter plates). Format: biochemical. The conditions noted are these: absorbance at 405 nanometers, 40° C. for 30 minutes, pH 7.5, titrated in triplicate and averaged. From the text:
The following chromogenic assay procedure was used to identify and evaluate inhibitors of recombinant human secreted phospholipase A2. The assay described herein has been adapted for high volume screening using 96 well microtiter plates. A general description of this assay method is found in the article, “Analysis of Human Synovial Fluid Phospholipase A2 on Short Chain Phosphatidylcholine-Mixed Micelles: Development of a Spectrophotometric Assay Suitable for a Microtiterplate Reader”, by Laure J. Reynolds, Lori L. Hughes, and Edward A Dennis, Analytical Biochemistry, 204, pp. 190-197, 1992 (the disclosure of which is incorporated herein by reference):
REACTION BUFFER— • CaCl2.2H2O (1.47 g/L) • KCl (7.455 g/L) • Bovine Serum Albumin (fatty acid free) (1 g/L) • (Sigma A-7030, product of Sigma • Chemical Co., St. Louis Mo., USA) • TRIS HCl (3.94 g/L) • pH 7.5 (adjust with NaOH)
ENZYME BUFFER— • 0.05 NaOAc.3H2O, pH 4.5 • 0.2 NaCl • Adjust pH to 4.5 with acetic acid
DTNB—5,5′-dithiobis-2-nitrobenzoic acid
RACEMIC DIHEPTANOYL THIO—PC • racemic 1,2-bis(heptanoylthio)-1,2-dideoxy-sn-glycero-3-phosphorylcholine • TRITON X-100™ prepare at 6.249 mg/ml in reaction buffer to equal […].
A measured volume of racemic dipheptanoyl thio PC supplied in chloroform at a concentration of 100 mg/ml is taken to dryness and redissolved in 10 millimolar TRITON X-100™ nonionic detergent aqueous solution. Reaction Buffer is added to the solution, then DTNB to give the Reaction Mixture.
The reaction mixture thus obtained contains 1 mM diheptanoly thio-PC substrate, 0.29 mm Triton X-100™ detergent, and 0.12 mm DTMB in a buffered aqueous solution at pH 7.5.
• 1. Add 0.2 ml reaction mixture to all wells; • 2. Add 10 ul test compound (or solvent blank) to appropriate wells, mix 20 seconds; • 3. Add 50 nanograms of sPLA2 (10 microliters) to appropriate wells; • 4. Incubate plate at 40° C. for 30 minutes; • 5. Read absorbance of wells at 405 nanometers with an automatic plate reader.
Tests were done in triplicate. Typically, compounds were tested at a final concentration of 5 ug/ml. […] Lack of color development at 405 nanometers evidenced inhibition. Compounds initially found to be active were re-assayed to confirm their activity and, if sufficiently active, IC50 values were determined. […] In all cases, % inhibition measured at 405 nanometers generated by enzyme reactions containing inhibitors relative to the uninhibited control reactions was determined. Each sample was titrated in triplicate and result values were averaged for plotting and calculation of IC50 values. IC50 values were determined by plotting log concentration versus inhibition values in the range from 10-90% inhibition.
The term IC50 denotes the concentration needed to halve the response being measured. For `CCc1c(C(=O)C(N)=O)c2c(OCC(=O)O)cc3c(c2n1Cc1ccccc1)CCCC3` [Example 13, 2-[[3-(2-Amino-1,2-dioxoethyl)-1-benzyl-2-ethyl-6,7,8,9-tetrahydro-1H-benz[g]indol-4-yl]oxy]acetic acid], the IC50 worked out at 0.011 µM.

As to `Cc1c(C(=O)C(N)=O)c2c(OCC(=O)O)cc3c(c2n1Cc1ccccc1)CCCC3` [Example 15, 2-[[3-(2-Amino-1,2-dioxoethyl)-1-benzyl-2-methyl-6,7,8,9-tetrahydro-1H-benz[g]indol-4-yl]oxy]acetic acid], the IC50 is 0.01 µM.

Consider `COC(=O)COc1cc2c(c3c1c(C(=O)C(N)=O)c(C)n3Cc1ccc(F)cc1)CCC2` [Example 10, 2-[[3-(2-Amino-1,2-dioxoethyl)-2-methyl-1-(4-fluorobenzyl)-1,6,7,8-tetrahydrocyclopent[g]indol-4-yl]oxy]acetic acid methyl ester], for which the IC50 was 0.806 µM.

For the molecule `Cc1c(C(=O)C(N)=O)c2c(OCC(=O)O)cc3c(c2n1Cc1ccccc1F)CCC3` [Example 9, 2-[[3-(2-Amino-1,2-dioxoethyl)-2-methyl-1-(2-fluorobenzyl)-1,6,7,8-tetrahydrocyclopent[g]indol-4-yl]oxy]acetic acid], the IC50 turned out to be 0.009 µM.

Take `Cc1c(C(=O)C(N)=O)c2c(OCC(=O)O)cc3c(c2n1Cc1ccccc1Br)CCC3` [Example 17, 2-[[3-(2-Amino-1,2-dioxoethyl)-2-methyl-1-(2-bromobenzyl)-1,6,7,8-tetrahydrocyclopent[g]indol-4-yl]oxy]acetic acid]: the IC50 is 0.01 µM.

For the molecule `COC(=O)COc1cc2c(c3c1c(C(=O)C(N)=O)c(C)n3Cc1ccccc1Br)CCC2` [Example 16, 2-[[3-(2-Amino-1,2-dioxoethyl)-2-methyl-1-(2-bromobenzyl)-1,6,7,8-tetrahydrocyclopent[g]indol-4-yl]oxy]acetic acid methyl ester], the IC50 was found to be 0.453 µM.

For the molecule `COC(=O)COc1cc2c(c3c1c(C(=O)C(N)=O)c(C)n3Cc1cccc(F)c1)CCC2` [Example 6, 2-[[3-(2-Amino-1,2-dioxoethyl)-2-methyl-1-(3-fluorobenzyl)-1,6,7,8-tetrahydrocyclopent[g]indol-4-yl]oxy]acetic Acid methyl ester], the IC50 was 0.132 µM.

With `COC(=O)COc1cc2c(c3c1c(C(=O)C(N)=O)c(C)n3Cc1ccccc1F)CCC2` [Example 8, 2-[[3-(2-Amino-1,2-dioxoethyl)-2-methyl-1-(2-fluorobenzyl)-1,6,7,8-tetrahydrocyclopent[g]indol-4-yl]oxy]acetic acid methyl ester], the IC50 came out at 0.073 µM.

For the molecule `CCc1c(C(=O)C(N)=O)c2c(OCC(=O)O)cc3c(c2n1Cc1ccccc1)CCC3` [Example 2, 2-[[3-(2-Amino-1,2-dioxoethyl)-2-ethyl-1-benzyl-1,6,7,8-tetrahydrocyclo-pent[g]indol-4-yl]oxy]acetic acid], the IC50 was determined as 0.013 µM.

On to `Cc1c(C(=O)C(N)=O)c2c(OCC(=O)NS(=O)(=O)c3ccccc3)cc3c(c2n1Cc1ccccc1)CCC3` [Example 5, 2-[4-(2-Benzenesulfonylamino-2-oxoethoxy)-1-benzyl-2-methyl-1,6,7,8-tetrahydro-1-aza-as-indacen-3-yl]-2-oxoacetamide], for which the IC50 stood at 0.007 µM.

Turning to `Cc1c(C(=O)C(N)=O)c2c(OCC(=O)O)cc3c(c2n1Cc1ccc(F)cc1)CCC3` [Example 11, 2-[[3-(2-Amino-1,2-dioxoethyl)-2-methyl-1-(4-fluorobenzyl)-1,6,7,8-tetrahydrocyclopent[g]indol-4-yl]oxy]acetic acid], the half-inhibitory concentration (IC50) is 0.082 µM.

As for `CCc1c(C(=O)C(N)=O)c2c(OCC(=O)OC)cc3c(c2n1Cc1ccccc1)CCCC3` [Example 12, 2-[[3-(2-Amino-1,2-dioxoethyl)-1-benzyl-2-ethyl-6,7,8,9-tetrahydro-1H-benz[g]indol-4-yl]oxy]acetic acid methyl ester], the IC50 stood at 0.1 µM.

Turning to `COC(=O)COc1cc2c(c3c1c(C(=O)C(N)=O)c(C)n3Cc1ccccc1)CCC2` [Example 3, 2-[[3-(2-Amino-1,2-dioxoethyl)-2-methyl-1-benzyl-1,6,7,8-tetrahydrocyclo-pent[g]indol-4-yl]oxy]acetic acid methyl ester], the IC50 came out at 0.106 µM.

Consider `COC(=O)COc1cc2c(c3c1c(C(=O)C(N)=O)c(C)n3Cc1ccccc1)CCCC2` [Example 14, 2-[[3-(2-Amino-1,2-dioxoethyl)-1-benzyl-2-methyl-6,7,8,9-tetrahydro-1H-benz[g]indol-4-yl]oxy]acetic acid methyl ester], for which the half-maximal inhibitory concentration (IC50) was found to be 0.109 µM.

With `Cc1c(C(=O)C(N)=O)c2c(OCC(=O)O)cc3c(c2n1Cc1ccccc1)CCC3` [Example 4, 2-[[3-(2-Amino-1,2-dioxoethyl)-2-methyl-1-benzyl-1,6,7,8-tetrahydrocyclopent[g]indol-4-yl]oxy]acetic acid], the IC50 is 0.01 µM.

On to `COC(=O)COc1cc2c(c3c1c(C(=O)C(N)=O)c(C)n3Cc1ccccc1-c1ccc(Br)s1)CCC2` [Example 20, 2-[[3-(2-amino-1,2-dioxoethyl)-1-[2-(5-bromothiophen-2-yl)benzyl]-2-methyl-1,6,7,8-tetrahydrocyclopent[g]indol-4-yl]oxy]acetic acid methyl ester], for which the IC50 came to 0.638 µM.

As to `Cc1c(C(=O)C(N)=O)c2c(OCC(=O)O)cc3c(c2n1Cc1ccccc1-c1ccc(Br)s1)CCC3` [Example 21, 2-[[3-(2-amino-1,2-dioxoethyl)-2-methyl-1-[2-(5-bromothiophen-2-yl)benzyl]-1,6,7,8-tetrahydrocyclopent[g]indol-4-yl]oxy]acetic acid], the IC50 was 0.044 µM.

Consider `Cc1c(C(=O)C(N)=O)c2c(OCC(=O)O)cc3c(c2n1Cc1ccccc1-c1ccccc1)CCC3` [Example 19, 2-[[3-(2-Amino-1,2-dioxoethyl)-2-methyl-1-(2-phenylbenzyl)-1,6,7,8-tetrahydrocyclopent[g]indol-4-yl]oxy]acetic acid], for which the IC50 is 0.035 µM.

Consider `COC(=O)COc1cc2c(c3c1c(C(=O)C(N)=O)c(C)n3Cc1ccccc1-c1ccccc1)CCC2` [Example 18, 2-[[3-(2-Amino-1,2-dioxoethyl)-2-methyl-1-(2-phenylbenzyl)-1,6,7,8-tetrahydrocyclopent[g]indol-4-yl]oxy]acetic acid methyl ester], for which the half-inhibitory concentration (IC50) is 0.19 µM.

On to `Cc1c(C(=O)C(N)=O)c2c(OCC(=O)O)cc3c(c2n1Cc1cccc(F)c1)CCC3` [Example 7, 2-[[3-(2-Amino-1,2-dioxoethyl)-2-methyl-1-(3-fluorobenzyl)-1,6,7,8-tetrahydrocyclopent[g]indol-4-yl]oxy]acetic acid hydrate], for which the IC50 was determined as 0.01 µM.

With `CCc1c(C(=O)C(N)=O)c2c(OCC(=O)OC)cc3c(c2n1Cc1ccccc1)CCC3` [Example 1, 2-[[3-(2-Amino-1,2-dioxoethyl)-2-ethyl-1-benzyl-1,6,7,8-tetrahydrocyclo-pent[g]indol-4-yl]oxy]acetic acid methyl ester], the IC50 worked out at 0.108 µM.

System in a further data set: not given
Test: not given
Settings: not given
For orientation: melting point means the temperature of the solid-liquid transition. `COC(=O)COc1cc2c(c3c1c(C(=O)C(N)=O)c(C)n3Cc1ccc(F)cc1)CCC2` [Example 10, 2-[[3-(2-Amino-1,2-dioxoethyl)-2-methyl-1-(4-fluorobenzyl)-1,6,7,8-tetrahydrocyclopent[g]indol-4-yl]oxy]acetic acid methyl ester] came in with a melting point of 222 to 224 °C.
